# From patent publication US7745639B2, “Mitotic kinesin inhibitors” (Merck & Co., Inc., priority 2002, dated 2010)
# Target: T1, human KSP motor domain (KSP(367H)) (Homo sapiens, UniProt P52732)
# T1 construct: were used to amplify the motor domain and the neck linker region; made in house; host or cells: E. coli BL21 (DE3), vector pRSETa
# T1 sequence (P52732 18-359 limits assumed): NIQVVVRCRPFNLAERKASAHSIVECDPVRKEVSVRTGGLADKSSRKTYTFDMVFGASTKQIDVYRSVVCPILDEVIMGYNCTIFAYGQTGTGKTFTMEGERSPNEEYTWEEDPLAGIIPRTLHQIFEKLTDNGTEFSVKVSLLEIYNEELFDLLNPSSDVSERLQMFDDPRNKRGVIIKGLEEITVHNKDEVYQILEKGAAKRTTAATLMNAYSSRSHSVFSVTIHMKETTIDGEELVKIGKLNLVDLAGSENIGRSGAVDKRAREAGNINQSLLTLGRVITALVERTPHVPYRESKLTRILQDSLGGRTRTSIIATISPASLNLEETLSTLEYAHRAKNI
# Assay: Kinesin ATPase in vitro assay
# Assay type: biochemical
# Settings: not given
# Source text: I. Kinesin ATPase In Vitro Assay
# Cloning and Expression of Human Poly-Histidine Tagged KSP Motor Domain (KSP(367H))
# Plasmids for the expression of the human KSP motor domain construct were cloned by PCR using a pBluescript full length human KSP construct (Blangy et al., Cell, vol.83, pp 1159-1169, 1995) as a template. The N-terminal primer 5′-[…] (SEQ.ID.NO.: 1) and the C-terminal primer 5′-[…] (SEQ.ID.NO.: 2) were used to amplify the motor domain and the neck linker region. The PCR products were digested with AseI and XhoI, ligated into the NdeI/XhoI digestion product of pRSETa (Invitrogen) and transformed into E. coli BL21 (DE3).
# Cells were grown at 37° C. to an OD600 of 0.5. After cooling the culture to room temperature expression of KSP was induced with 100 μM IPTG and incubation was continued overnight. Cells were pelleted by centrifugation and washed once with ice-cold PBS. Pellets were flash-frozen and stored −80° C.
# Cell pellets were thawed on ice and resuspended in lysis buffer (50 mM K-HEPES, pH 8.0, 250 mM KCl, 0.1% Tween, 10 mM imidazole, 0.5 mM Mg-ATP, 1 mM PMSF, 2 mM benzimidine, 1× complete protease inhibitor cocktail (Roche)). Cell suspensions were incubated with 1 mg/ml lysozyme and 5 mM β-mercaptoethanol on ice for 10 minutes, followed by sonication (3×30 sec). All subsequent procedures were performed at 4° C. Lysates were centrifuged at 40,000×g for 40 minutes. Supernatants were diluted and loaded onto an SP Sepharose column (Pharmacia, 5 ml cartridge) in buffer A (50 mM K-HEPES, pH 6.8, 1 mM MgCl2, 1 mM EGTA, […], 1 mM DTT) and eluted with a 0 to 750 mM KCl gradient in buffer A. Fractions containing KSP were pooled and incubated with Ni-NTA resin (Qiagen) for one hour. The resin was washed three times with buffer B (Lysis buffer minus PMSF and protease inhibitor cocktail), followed by three 15-minute incubations and washes with buffer B. Finally, the resin was incubated and washed for 15 minutes three times with buffer C (same as buffer B except for pH 6.0) and poured into a column. KSP was eluted with elution buffer (identical to buffer B except for 150 mM KCl and 250 mM imidazole). KSP-containing fractions were pooled, made 10% in sucrose, and stored at −80° C.
# Microtubules are prepared from tubulin isolated from bovine brain. Purified tubulin (>97% MAP-free) at 1 mg/ml is polymerized at 37° C. in the presence of 10 μM paclitaxel, 1 mM DTT, 1 mM GTP in BRB80 buffer (80 mM K-PIPES, 1 mM EGTA, 1 mM MgCl2 at pH 6.8). The resulting microtubules are separated from non-polymerized tubulin by ultracentrifugation and removal of the supernatant. The pellet, containing the microtubules, is gently resuspended in 10 μM paclitaxel, 1 mM DTT, 50 μg/ml ampicillin, and 5 μg/ml chloramphenicol in BRB80.
# The kinesin motor domain is incubated with microtubules, 1 mM ATP (1:1 MgCl2: Na-ATP), and compound at 23° C. in buffer containing 80 mM K-HEPES (pH 7.0), 1 mM EGTA, 1 mM DTT, 1 mM MgCl2, and 50 mM KCl. The reaction is terminated by a 2-10 fold dilution with a final buffer composition of 80 mM HEPES and 50 mM EDTA. Free phosphate from the ATP hydrolysis reaction is measured via a quinaldine red/ammonium molybdate assay by adding 150 μl of quench C buffer containing a 2:1 ratio of quench A:quench B. Quench A contains 0.1 mg/ml quinaldine red and 0.14% polyvinyl alcohol; quench B contains 12.3 mM ammonium molybdate tetrahydrate in 1.15 M sulfuric acid. The reaction is incubated for 10 minutes at 23° C., and the absorbance of the phospho-molybdate complex is measured at 540 nm.
row,SMILES,IC50
1,"CC(=O)N1N=C(c2ccccc2Cl)CC1c1cccc(O)c1 (stereo not drawn) [Compound 1-7, 3-[1-acetyl-3-(2-chlorophenyl)-4,5-dihydro-1H-pyrazol-5-yl]phenyl]",≤ 50 µM

# Same assay, conditions: kinesin motor domain incubated with microtubules, 1 mM ATP and compound at 23° C.; free phosphate by quinaldine red/ammonium molybdate, 540 nm; read-out: IC50
row,SMILES,IC50
1,"CC(=O)N1N=C(c2ccccc2Cl)CC1(C)c1cccc(O)c1 (stereo not drawn) [Compound 3-3, 3-[1-acetyl-3-(2-chlorophenyl)-5-methyl-4,5-dihydro-1H-pyrazol-5-yl]phenyl]",≤ 50 µM
2,"CN1N=C(c2cc(F)ccc2F)CC1(C)c1ccccc1 (stereo not drawn) [Compound 6-2, 3-(2,5-difluorophenyl)-1,5-dimethyl-5-phenyl-4,5-dihydro-1H-pyrazole]",≤ 50 µM
3,"NCCCC1(c2ccccc2)CC(c2cc(F)ccc2F)=NN1C(=O)N1CCOCC1 (stereo not drawn) [Compound 7-7, 3-[3-(2,5-difluorophenyl)-1-(morpholin-4-ylcarbonyl)-5-phenyl-4,5-dihydro-1H-pyrazol-5-yl]propan-1-amine]",≤ 50 µM
4,"CCNC(=O)N1N=C(c2cc(F)ccc2F)CC1(CCCN(C)C)c1ccccc1 (stereo not drawn) [Compound 9-2, 3-(2,5-difluorophenyl)-5-[3-(dimethylamino)propyl]-N-ethyl-5-phenyl-4,5-dihydro-1H-pyrazole-1-carboxamide]",≤ 50 µM
5,"CCNC(=O)N1N=C(c2cc(F)ccc2F)CC1(CCCNC(=O)c1ncc[nH]1)c1ccccc1 (stereo not drawn) [Compound 10-2, 3-(2,5-difluorophenyl)-N-ethyl-5-{3-[(1H-imidazol-2-ylcarbonyl)amino]propyl}-5-phenyl-4,5-dihydro-1H-pyrazole-1-carboxamide]",≤ 50 µM
6,"CN(C)C(=O)N1N=C(c2cc(F)ccc2F)CC1(CCC(N)c1ccccc1)c1ccccc1 (stereo not drawn) [Compound 11-2, 5-(3-amino-3-phenylpropyl)-3-(2,5-difluorophenyl)-N,N-dimethyl-5-phenyl-4,5 dihydro-1H-pyrazole-1-carboxamide]",≤ 50 µM

# Second part, the compound after the results:
row,IC50,SMILES
1,≤ 50 µM,"CC(=O)N1N=C(c2cc(F)ccc2F)CC1c1cccc(O)c1 (racemic) [Compound 4-5, 3-[1-acetyl-3-(2,5-difluorophenyl)-4,5-dihydro-1H-pyrazol-5-yl]phenyl]"
2,≤ 50 µM,"CC(=O)N1N=C(c2cc(F)ccc2F)C(C)C1c1ccccc1 (single isomer, unassigned) [Compound 12-2, 1-acetyl-3-(2,5-difluorophenyl)-4-methyl-5-phenyl-4,5-dihydro-1H-pyrazole]"
3,≤ 50 µM,"CC(C)C(=O)N1N=C(c2ccccc2Cl)CC1c1cccc(O)c1 (stereo not drawn) [Compound 2-1, 3-[3-(2-chlorophenyl)-1-isobutyryl-4,5-dihydro-1H-pyrazol-5-yl]phenyl]"
4,≤ 50 µM,"O=C(N1CCNCC1)N1N=C(c2cc(F)ccc2F)CC1c1ccccc1 (stereo not drawn) [Compound 5-6, 1-{[3-(2,5-difluorophenyl)-5-phenyl-4,5-dihydro-1H-pyrazol-1-yl]carbonyl}piperazine]"
5,≤ 50 µM,"CS(=O)(=O)N1N=C(c2cc(F)ccc2F)CC1c1ccccc1 (stereo not drawn) [Compound 8-1, 3-(2,5-difluorophenyl)-1-(methylsulfonyl)-5-phenyl-4,5-dihydro-1H-pyrazole]"
